{
  "source": "paper PMC8466300",
  "about": "“Investigating the Central Nervous System Disposition of Actinomycin D: Implementation and Evaluation of Cerebral Microdialysis and Brain Tissue Measurements Supported by UPLC-MS/MS Quantification” (Pharmaceutics, 2021)",
  "key": {"[1]": {"settings": "female NSG mice, 0.5 mg/kg i.v. bolus, estimates; for Cmax: plasma at 0.75, 6, 22 h, UPLC-MS/MS; for t1/2 (half-life): plasma up to 22 h; for AUC (extrapolated to infinity): plasma", "protocol": "(§1) The experiments were carried out in accordance with the European regulations for care and use of laboratory animals (2010/63/EU) under the German license number G-187/18 and the internal reference number DKFZ374, approved by the responsible regional council (Regierungspräsidium Karlsruhe, Germany). Female 8-week-old NSG mice (NOD.Cg-Prkdc^scid Il2rg^tm1Wjl/SzJ-NOD-SCID gamma-mice) with a weight of approximately 25 g were used for the studies. […] Mice received analgesia (metamizole) and anesthesia with isoflurane during surgery. […] Therefore, we chose to take blood samples 0.75, 6, and 22 h after intravenous bolus injection into the tail vein for the assay’s feasibility pharmacokinetic experiment. […] Full blood samples were transferred into citrate tubes (Sarstedt, Germany) and centrifuged at 1600× g for 10 min to generate plasma samples, which were stored at −80 °C until analysis. […] For validation of the UPLC-MS/MS quantification, blank plasma from 6 naïve mice was used and blank brain tissue was obtained from 2 unexposed mice.\n(§2) For protein precipitation of plasma microsamples, an excess of ACN (50 µL) with 0.1% FA containing the IS was applied to an Impact® 96-well protein precipitation plate (Phenomenex, Torrance, CA, USA). Subsequently, 20 µL of the plasma samples were added and the plates sealed and shaken for 1 min. […] For protein depletion, samples were filtered into a 96-well collection plate (Waters, Milford, MA, USA) by applying positive pressure with a 96-well positive pressure unit (Waters, Milford, MA, USA) operated with air overpressure of 5 psi. After addition of 40 µL of water containing 0.1% FA, the collection plates were sealed, shaken, and extracts injected onto the UPLC system."}, "[2]": {"assay": "Plasma and brain tissue concentrations after intravenous bolus injection (CNS disposition)", "type": "in vivo, mice", "settings": "for Brain-to-Plasma Ratio: total concentrations", "description": "The experiments were carried out in accordance with the European regulations for care and use of laboratory animals (2010/63/EU) under the German license number G-187/18 and the internal reference number DKFZ374, approved by the responsible regional council (Regierungspräsidium Karlsruhe, Germany). Female 8-week-old NSG mice (NOD.Cg-Prkdc^scid Il2rg^tm1Wjl/SzJ-NOD-SCID gamma-mice) with a weight of approximately 25 g were used for the studies. For microdialysis experiments, a microdialysis guide cannula was stereotactically implanted into the right striatum and stabilized with screws and dental acrylic cement. Mice received analgesia (metamizole) and anesthesia with isoflurane during surgery. After six days of recovery, the microdialysis procedure was initiated. A microdialysis probe (CMA7, 1 mm, molecular cut-off 55 kDa, CMA Microdialysis AB, Kist, Sweden) was inserted through the guide cannula and connected to a pump system operating at a constant flow rate of 0.5 µL/min Ringer-1 % bovine serum albumin (BSA) solution. Throughout the study, mice could freely move. Microdialysis samples were serially collected each hour. Because the number of blood collections in individual mice is limited, we estimated the optimal timepoints for a pharmacokinetic feasibility study by allometric simulation of actinomycin D’s pharmacokinetic profile in mice according to published data in humans. For the allometric simulation, mouse plasma pharmacokinetic profiles were simulated by allometrically scaling the clearance and volumes parameters using classic exponents (0.75 for clearances and 1 for volumes) […], based on 0.5 mg/kg dosage. […] Therefore, we chose to take blood samples 0.75, 6, and 22 h after intravenous bolus injection into the tail vein for the assay’s feasibility pharmacokinetic experiment. Three animals received an intravenous bolus injection of 0.5 mg/kg actinomycin D in 0.125 mL per mouse (25 g) of a 0.1 mg/mL dosing solution. This dosage corresponds to the usual therapy protocols in humans according to allometric scaling. Full blood samples were transferred into citrate tubes (Sarstedt, Germany) and centrifuged at 1600× g for 10 min to generate plasma samples, which were stored at −80 °C until analysis. For determination of actinomycin D disposition in the CNS, brain tissue, and plasma samples were harvested following euthanasia with increasing concentrations of CO2 at 2 h (three animals) or 22 h (four animals) after intravenous bolus injection of 0.5 mg/kg actinomycin D. Samples were stored at −80 °C until analysis. For validation of the UPLC-MS/MS quantification, blank plasma from 6 naïve mice was used and blank brain tissue was obtained from 2 unexposed mice. Whole brain tissue was homogenized using a Bead Ruptor 4 homogenizer (Omni International Inc, Kennesaw, GA, USA) in acetonitrile (ACN)/water (1/19, v/v) + 0.5 % Triton X and 0.1 % formic acid (FA) (100 mg brain tissue/mL) in 2.0 mL tubes containing ~25 glass beads (0.75–1 mm; Carl Roth GmbH, Karlsruhe, Germany) for 2 × 1 min.\nFor protein precipitation of plasma microsamples, an excess of ACN (50 µL) with 0.1% FA containing the IS was applied to an Impact® 96-well protein precipitation plate (Phenomenex, Torrance, CA, USA). Subsequently, 20 µL of the plasma samples were added and the plates sealed and shaken for 1 min. Brain tissue homogenate samples were processed accordingly. For protein depletion, samples were filtered into a 96-well collection plate (Waters, Milford, MA, USA) by applying positive pressure with a 96-well positive pressure unit (Waters, Milford, MA, USA) operated with air overpressure of 5 psi. After addition of 40 µL of water containing 0.1% FA, the collection plates were sealed, shaken, and extracts injected onto the UPLC system."}, "in vivo": {"assay": "in vivo", "settings": "female, mouse, plasma, iv, 0.5 mg/kg; for level at 6 h / level at 22 h: NSG (NOD.Cg-Prkdc^scid Il2rg^tm1Wjl/SzJ), plasma actinomycin D concentration, incurred sample reanalysis table", "protocol": "as §1, §2"}},
  "note": "Where “and” joins values, the source holds several entries; their conditions need not be identical. Identical values can stand only once. Like-named read-outs stand apart in the source and are kept apart here. *1 amine or outer side, *2 acyl side, *3 side chain or, on linkers, in order; H or OH if unused. Where a SMILES comes first, the peptide text is derived from it. Bridges are numbered along the chain shown (N, C = ends). Roman numbers before positions name the chains, in order. [ ]: non-standard residue; d: D form. Actinocin(9to1) = Cc1c2oc3c(C)ccc(C(=O)[*:1])c3nc-2c(C(=O)[*:2])c(N)c1=O; NMeV = CN[C@H](C(=O)O)C(C)C; Sar = CNCC(=O)O",
  "data": [
    {"compound": "Cc1c2oc3c(C)ccc(C(=O)N[C@@H]4C(=O)N[C@H](C(C)C)C(=O)N5CCC[C@H]5C(=O)N(C)CC(=O)N(C)[C@@H](C(C)C)C(=O)O[C@@H]4C)c3nc-2c(C(=O)N[C@@H]2C(=O)N[C@H](C(C)C)C(=O)N3CCC[C@H]3C(=O)N(C)CC(=O)N(C)[C@@H](C(C)C)C(=O)O[C@@H]2C)c(N)c1=O", "note": "[actinomycin D, Actinomycin D] (I: T[dV]P[Sar][NMeV] / II: T[dV]P[Sar][NMeV]; ester I:1-I:C, II:1-II:C; linker I:N-II:N via Actinocin(9to1))", "values": [
      {"measurement": "Cmax", "setting": "[1]; mouse 1", "value": 22.6, "unit": "ng/mL"},
      {"measurement": "Cmax", "setting": "[1]; mouse 2", "value": 14.6, "unit": "ng/mL"},
      {"measurement": "Cmax", "setting": "[1]; mouse 3", "value": 10.3, "unit": "ng/mL"},
      {"measurement": "t1/2 (half-life)", "setting": "[1]; mouse 1", "value": 5.07, "unit": "h"},
      {"measurement": "t1/2 (half-life)", "setting": "[1]; mouse 2", "value": 6.14, "unit": "h"},
      {"measurement": "t1/2 (half-life)", "setting": "[1]; mouse 3", "value": 6.90, "unit": "h"},
      {"measurement": "AUC (extrapolated to infinity)", "setting": "[1]; mouse 1", "value": 171, "unit": "ng·h/mL"},
      {"measurement": "AUC (extrapolated to infinity)", "setting": "[1]; mouse 2", "value": 111, "unit": "ng·h/mL"},
      {"measurement": "AUC (extrapolated to infinity)", "setting": "[1]; mouse 3", "value": 101, "unit": "ng·h/mL"},
      {"measurement": "Cl (clearance)", "setting": "[1]; mouse 1", "value": 1.22, "unit": "mL/min"},
      {"measurement": "Vss (volume of distribution)", "setting": "[1]; mouse 1", "value": 0.53, "unit": "L"},
      {"measurement": "Cl (clearance)", "setting": "[1]; mouse 2", "value": 1.87, "unit": "mL/min"},
      {"measurement": "Vss (volume of distribution)", "setting": "[1]; mouse 2", "value": 0.98, "unit": "L"},
      {"measurement": "Cl (clearance)", "setting": "[1]; mouse 3", "value": 2.06, "unit": "mL/min"},
      {"measurement": "Vss (volume of distribution)", "setting": "[1]; mouse 3", "value": 1.23, "unit": "L"},
      {"measurement": "level at time molar at 2 h", "setting": "[2]; female, NSG (NOD.Cg-Prkdc^scid Il2rg^tm1Wjl/SzJ), mouse, brain, iv, mice, 0.5 mg/kg i.v., after 2 h, read-out: brain tissue concentration", "value": "~3", "unit": "nM"},
      {"measurement": "level at time molar at 22 h", "setting": "[2]; female, NSG (NOD.Cg-Prkdc^scid Il2rg^tm1Wjl/SzJ), mouse, brain, iv, mice, 0.5 mg/kg i.v., after 22 h, read-out: brain tissue concentration", "value": "~1.2", "unit": "nM"},
      {"measurement": "tissue level at time at 2 h", "setting": "[2]; female, NSG (NOD.Cg-Prkdc^scid Il2rg^tm1Wjl/SzJ), mouse, iv, mice, 0.5 mg/kg i.v., 2 h, whole brain homogenate after cardiac perfusion with PBS, UPLC-MS/MS, mean of 3 mice, read-out: Brain Actinomycin D (total brain tissue concentration)", "value": 4.1, "unit": "ng/g"},
      {"measurement": "level at 2 h", "setting": "[2]; female, NSG (NOD.Cg-Prkdc^scid Il2rg^tm1Wjl/SzJ), mouse, plasma, iv, mice, 0.5 mg/kg i.v., 2 h after administration, UPLC-MS/MS, mean of 3 mice, read-out: Plasma Actinomycin D", "value": "22.7 ± 3.9", "unit": "ng/mL"},
      {"measurement": "tissue level at time at 22 h", "setting": "[2]; female, NSG, mouse, iv, mice, 0.5 mg/kg i.v., 22 h, whole brain homogenate after cardiac perfusion with PBS, UPLC-MS/MS, mean of 4 mice, read-out: Brain Actinomycin D (total brain tissue concentration)", "value": "1.67 ± 0.77", "unit": "ng/g"},
      {"measurement": "level at 22 h", "setting": "[2]; female, NSG, mouse, plasma, iv, mice, 0.5 mg/kg i.v., 22 h after administration, UPLC-MS/MS, mean of 4 mice, read-out: Plasma Actinomycin D", "value": "3.4 ± 1.45", "unit": "ng/mL"},
      {"measurement": "Brain Actinomycin D (total brain tissue concentration)", "setting": "[2]; mice, 0.5 mg/kg i.v., 2 h, whole brain homogenate after cardiac perfusion with PBS, UPLC-MS/MS, mean of 3 mice, 0.5 mg/kg", "value": "4.14 ± 0.50", "unit": "ng/g"},
      {"measurement": "Brain-to-Plasma Ratio", "setting": "[2]; mice, 0.5 mg/kg i.v., 2 h, mean of 3 mice, 0.5 mg/kg", "value": "0.18 and 0.18 ± 0.03"},
      {"measurement": "Brain-to-Plasma Ratio", "setting": "[2]; mice, 0.5 mg/kg i.v., 2 h, mouse 1", "value": 0.21},
      {"measurement": "Brain-to-Plasma Ratio", "setting": "[2]; mice, 0.5 mg/kg i.v., 2 h, mouse 2", "value": 0.18},
      {"measurement": "Brain-to-Plasma Ratio", "setting": "[2]; mice, 0.5 mg/kg i.v., 2 h, mouse 3", "value": 0.16},
      {"measurement": "Brain-to-Plasma Ratio", "setting": "[2]; mice, 0.5 mg/kg i.v., 22 h, mean of 4 mice", "value": "0.53 ± 0.26"},
      {"measurement": "Brain-to-Plasma Ratio", "setting": "[2]; mice, 0.5 mg/kg i.v., 22 h, mouse 4", "value": 0.80},
      {"measurement": "Brain-to-Plasma Ratio", "setting": "[2]; mice, 0.5 mg/kg i.v., 22 h, mouse 5", "value": 0.37},
      {"measurement": "Brain-to-Plasma Ratio", "setting": "[2]; mice, 0.5 mg/kg i.v., 22 h, mouse 6", "value": 0.18},
      {"measurement": "Brain-to-Plasma Ratio", "setting": "[2]; mice, 0.5 mg/kg i.v., 22 h, mouse 7", "value": 0.77},
      {"measurement": "actinomycin D concentration in brain tissue homogenate", "setting": "[2]; mouse #1, 0.5 mg/kg i.v., 2 h, homogenate at 0.1 g tissue/mL, UPLC-MS/MS", "value": 0.409, "unit": "ng/mL"},
      {"measurement": "level at 6 h", "setting": "in vivo; incurred reanalysis, mouse # 6, sampling 6 h", "value": 1.17, "unit": "ng/mL"},
      {"measurement": "level at 22 h", "setting": "in vivo; incurred reanalysis, mouse # 6, sampling 22 h", "value": 1.16, "unit": "ng/mL"},
      {"measurement": "level at 6 h", "setting": "in vivo; incurred reanalysis, mouse # 7, sampling 6 h", "value": 5.23, "unit": "ng/mL"},
      {"measurement": "level at 22 h", "setting": "in vivo; incurred reanalysis, mouse # 7, sampling 22 h", "value": 5.17, "unit": "ng/mL"},
      {"measurement": "level at 6 h", "setting": "in vivo; original analysis, mouse # 6, sampling 6 h", "value": 1.31, "unit": "ng/mL"},
      {"measurement": "level at 22 h", "setting": "in vivo; original analysis, mouse # 6, sampling 22 h", "value": 1.36, "unit": "ng/mL"},
      {"measurement": "level at 6 h", "setting": "in vivo; original analysis, mouse # 7, sampling 6 h", "value": 5.51, "unit": "ng/mL"},
      {"measurement": "level at 22 h", "setting": "in vivo; original analysis, mouse # 7, sampling 22 h", "value": 4.48, "unit": "ng/mL"},
      {"measurement": "AUC(0-inf)", "setting": "in vivo; NSG", "value": "128 ± 31", "unit": "ng·h/mL"},
      {"measurement": "Cmax", "setting": "in vivo; NSG", "value": "15.8 ± 5.1", "unit": "ng/mL"},
      {"measurement": "Vd", "setting": "in vivo; NSG", "value": "1.1 ± 0.35", "unit": "L"},
      {"measurement": "half-life", "setting": "in vivo; NSG", "value": "6.04 ± 0.75", "unit": "h"}
    ]}
  ]
}
